Reference: the supplement of paper PMC5908809

Legend:
[1] = test system: normal NK cells expanded with K562-aAPC; assay: percent inhibition of viability; higher = more inhibition; conditions: 72 h, IL-2 2.5 ng/mL
Method: (§1)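 Drug sensitivity and resistance testing on K562-aAPC-expanded normal NK cells: 5 concentrations (10-fold steps over a 10,000-fold range), 72 h at 37 °C, viability by CellTiter-Glo normalised to DMSO and benzethonium chloride controls; DSS from the fitted curve.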

[2] = test system: DERL-7 (IL-2 2.5 ng/mL); assay: as above; conditions: 72 h
[3] = test system: IMC-1 (IL-2 20 ng/mL); assay: as above; conditions: 72 h
[4] = test system: KAI3 (IL-2 2.5 ng/mL); assay: as above; conditions: 72 h
[5] = test system: KHYG-1 (IL-2 2.5 ng/mL); assay: as above; conditions: 72 h
[6] = test system: NK-92 (IL-2 2.5 ng/mL); assay: as above; conditions: 72 h
[7] = test system: NK-YS (IL-2 2.5 ng/mL); assay: as above; conditions: 72 h
[8] = test system: NKL (IL-2 2.5 ng/mL); assay: as above; conditions: 72 h
[9] = test system: SNK-6 (IL-2 2.5 ng/mL); assay: as above; conditions: 72 h
[10] = test system: YT (IL-2 2.5 ng/mL); assay: as above; conditions: 72 h
[11] = test system: normal primary NK cells, pool 1 (3 donors) (IL-2 2.5 ng/mL); assay: as above; conditions: 72 h
[12] = test system: normal primary NK cells, pool 1 (3 donors), resting (IL-2 0 ng/mL); assay: as above; conditions: 72 h
[13] = test system: normal primary NK cells, pool 2 (3 donors) (IL-2 2.5 ng/mL); assay: as above; conditions: 72 h
[14] = test system: normal primary NK cells, pool 3 (3 donors) (IL-2 2.5 ng/mL); assay: as above; conditions: 72 h
[15] = test system: normal NK cells expanded with K562-aAPC; assay: drug sensitivity score (DSS) (DSS units); higher = more sensitive; extreme values may be limits of the assay; conditions: 72 h; IL-2 2.5 ng/mL
Method: as §1

[16] = test system: DERL-7 (IL-2 2.5 ng/mL); assay: as above; conditions: 72 h
[17] = test system: IMC-1 (IL-2 20 ng/mL); assay: as above; conditions: 72 h
[18] = test system: KAI3 (IL-2 2.5 ng/mL); assay: as above; conditions: 72 h
[19] = test system: KHYG-1 (IL-2 2.5 ng/mL); assay: as above; conditions: 72 h
[20] = test system: NK-92 (IL-2 2.5 ng/mL); assay: as above; conditions: 72 h
[21] = test system: NK-YS (IL-2 2.5 ng/mL); assay: as above; conditions: 72 h
[22] = test system: NKL (IL-2 2.5 ng/mL); assay: as above; conditions: 72 h
[23] = test system: SNK-6 (IL-2 2.5 ng/mL); assay: as above; conditions: 72 h
[24] = test system: YT (IL-2 2.5 ng/mL); assay: as above; conditions: 72 h
[25] = test system: normal primary NK cells, pool 1 (3 donors) (IL-2 2.5 ng/mL); assay: as above; conditions: 72 h
[26] = test system: normal primary NK cells, pool 1 (3 donors), resting (IL-2 0 ng/mL); assay: as above; conditions: 72 h
[27] = test system: normal primary NK cells, pool 2 (3 donors) (IL-2 2.5 ng/mL); assay: as above; conditions: 72 h
[28] = test system: normal primary NK cells, pool 3 (3 donors) (IL-2 2.5 ng/mL); assay: as above; conditions: 72 h

N#CC1(c2ccc(NC(=O)c3cccnc3NCc3ccncc3)cc2)CCCC1 [Apatinib] (max concentration tested 10000 nM)
percent inhibition of viability [%]
Conditions	1 nM	10 nM	100 nM	1000 nM	10000 nM
[1]	-1.56	-5.13	-0.99	0.76	2.66
[2]	-0.33	-0.49	-2.76	-4.82	1.97
[3]	-6.4	-0.28	-6.01	0.8	2.01
[4]	3.83	2.76	6.74	10.3	12.3
[5]	4.44	2.43	2.62	6.69	19
[6]	-3.67	-7.24	2.24	10.8	52.7
[7]	-1	2.11	4.05	9.52	12.6
[8]	-16.2	-14.6	-14.8	-14.5	-12.3
[9]	21	12.9	7.35	12.6	28.4
[10]	-0.29	0.42	2.63	7.54	7.83
[11]	-14.6	-10.1	-4.55	-2.69	6.98
[12]	-2.35	4.05	8.46	11.4	31.2
[13]	-4.33	-2.31	-5.54	-1.25	-5.6
[14]	-6.46	-8.45	-1.68	-7.82	1.12

Conditions	drug sensitivity score
[15]	0
[16]	0
[17]	0
[18]	0.17
[19]	0.9
[20]	4.58
[21]	0.26
[22]	0
[23]	0
[24]	0
[25]	0
[26]	2.45
[27]	0
[28]	0

C[C@H](Nc1ncnc2nc[nH]c12)c1cc2cccc(Cl)c2c(=O)n1-c1ccccc1 [Duvelisib] (max concentration tested 500 nM)
percent inhibition of viability [%]
Conditions	0.05 nM	0.5 nM	5 nM	50 nM	500 nM
[1]	-2.59	4.75	5.15	19.8	45.7
[2]	-0.14	9.15	10.2	25.2	56.5
[3]	0.88	-0.84	-0.96	-0.33	6.98
[4]	-4.68	0.86	7.47	8.25	24.3
[5]	1.1	3.56	6.06	5.02	18.1
[6]	-9.06	-4.46	22.4	26.1	42.3
[7]	-2.69	-4.82	0.82	-1.23	13
[8]	-10.5	7.21	0.54	24.6	17.3
[9]	-0.58	4.35	2.29	9.46	32.8
[10]	0.13	2.78	3.52	2.82	12.4
[11]	-0.52	-4.76	3.49	6.72	18.7
[12]	0.72	-3.61	2.62	-2.38	3.26
[13]	-6.04	4.46	6.08	11.3	26.1
[14]	-13.6	-1.02	-2.45	-0.85	21.8

Conditions	drug sensitivity score
[15]	4.43
[16]	6.16
[17]	0
[18]	1.4
[19]	0.45
[20]	7.08
[21]	0.07
[22]	3.86
[23]	2.8
[24]	0.15
[25]	0.83
[26]	0
[27]	1.9
[28]	0.66

NC(=O)Nc1cc(-c2cccc(F)c2)sc1C(=O)N[C@H]1CCCNC1 [AZD7762] (max concentration tested 1000 nM)
percent inhibition of viability [%]
Conditions	0.1 nM	1 nM	10 nM	100 nM	1000 nM
[1]	-1.82	-2.38	-5.7	40.7	73.3
[2]	0.34	1.83	-2.38	40.2	96.8
[3]	-6.23	-1.75	-2.17	-7.04	99
[4]	3.25	1.46	16.1	87.4	101
[5]	-7.54	-7.13	3.29	100	106
[6]	-12.3	2.34	-2.59	33.4	104
[7]	-4.78	-5.3	-1.14	32.8	98.5
[8]	-9.43	-12.1	12	71.8	94.4
[9]	1.39	-7.11	6.7	38.1	98.3
[10]	-5.67	-1.28	2.8	28.1	99.1
[11]	-5.93	12.7	4.94	7.28	38.7
[12]	-1.65	27.9	17.6	7.65	15
[13]	-6.25	11.4	-7.48	-6.09	39.8
[14]	-4.39	6.88	-1.78	-16.7	27.9

Conditions	drug sensitivity score
[15]	9.03
[16]	10.7
[17]	4.99
[18]	18
[19]	18.4
[20]	10.2
[21]	10.1
[22]	14.9
[23]	10
[24]	9.64
[25]	3.1
[26]	2.58
[27]	1.59
[28]	0.69

O=C(CCCCCCC(=O)Nc1ccccc1)NO [Vorinostat] (max concentration tested 10000 nM)
percent inhibition of viability [%]
Conditions	1 nM	10 nM	100 nM	1000 nM	10000 nM
[1]	-0.79	-2.42	2.48	56.2	100
[2]	-1.03	-2.59	-8.59	72	101
[3]	-3.93	-0.96	-3.21	10.4	101
[4]	-1.17	1.24	28.6	72.4	106
[5]	-10.8	-5.48	-3.11	83.4	108
[6]	-12.1	-8.53	8.96	76.6	107
[7]	-9.89	-6.61	-3.67	40.2	105
[8]	-8.87	-13.6	15.1	78.1	107
[9]	1.27	-7.67	9.77	59.8	100
[10]	-0.8	-1.86	3.47	27.2	106
[11]	10.5	10	21.7	67.8	98.3
[12]	-1.81	11.6	10.4	71.9	90.8
[13]	-5.53	-2.6	-3.11	42.6	96.4
[14]	-8.36	-6.48	0.69	14.9	98.3

Conditions	drug sensitivity score
[15]	12.2
[16]	13.7
[17]	7.28
[18]	17.3
[19]	15.2
[20]	15.4
[21]	10.9
[22]	16.4
[23]	13
[24]	9.63
[25]	15.7
[26]	14.8
[27]	10.8
[28]	7.93

CC1(C)NC(=O)N(c2ccc([N+](=O)[O-])c(C(F)(F)F)c2)C1=O [Nilutamide] (max concentration tested 10000 nM)
percent inhibition of viability [%]
Conditions	1 nM	10 nM	100 nM	1000 nM	10000 nM
[1]	-10	-7.03	-6.98	-0.84	12.4
[2]	-0.2	-1.34	3.47	-0.03	1.75
[3]	0	-0.12	2.93	3	40.4
[4]	2	1.75	11.7	3.52	28.1
[5]	24.8	-7.14	-0.73	-1.75	15.3
[6]	-0.95	-6.88	4.02	-1.88	24.8
[7]	-5.09	-3.33	-3.78	3.59	17.6
[8]	10.6	5.58	15.2	17.2	31.6
[9]	33.2	-24.8	-17.7	-22.5	-4.35
[10]	0.36	-6.16	5.94	-0.37	25
[11]	-9.72	5.06	-2.38	6.35	1.66
[12]	-1.3	10.6	10.3	9.07	18.9
[13]	-2.69	6.11	0.2	1.25	3.42
[14]	1.57	6.88	3.88	-4.89	-2.84

Conditions	drug sensitivity score
[15]	0.04
[16]	0
[17]	2.47
[18]	1.74
[19]	0.08
[20]	0.81
[21]	0.84
[22]	4.46
[23]	0
[24]	0.93
[25]	0
[26]	1.43
[27]	0
[28]	0
